Legend:
[1] = target: T1, B. subtilis FtsZ-eGFP fusion protein (Bacillus subtilis, UniProt P17865); assay: Fluorescence microscopy of FtsZ-eGFP localization; assay type: cell-based; conditions: 3 μM F332, 4 hours
T1 construct: expressed in transfected cells; host or cells: B. subtilis 168 transformed with pFZ-FtsZ-eGFP
Description: The localization of the filamentation in B. subtilis that induced by F332 was performed by fluorescence microscopy using the cell division protein FtsZ identified by a green fluorescent protein. The expression plasmid of the FtsZ-eGFP fusion protein was constructed as follows (the structure of the plasmid was shown in FIG. 10a).
to amplify the eGFP gene fragment, with about 700 base pairs. Two fragments were ligated by overlap extension PCR method and then digested with endonucleases EcoRI and BamHI. They were ligated into the corresponding cleavage site of pFZ2.0 and transformed into E. coli BL21 (DE3) and screened on chloramphenicol plates to obtain the plasmid pFZ-FtsZ-eGFP. The plasmid extracted was transformed into B. subtilis 168 and grown in LB medium containing chloramphenicol. The expression of FtsZ-eGFP gene was observed by adding different concentrations of lactose or IPTG
The B. subtilis shown in FIGS. 10b and 10c was cultured in the absence of F332.
The B. subtilis shown in FIGS. 10d and 10e was cultured in the presence of F332. […] Thus, the expression of the protein was not only at the position where cell division was performed.

[2] = tested on: MRSA strain 2490; assay: FICI of F332 with antibiotics; assay type: cell-based, S. aureus
[3] = tested on: MRSA strain 254; assay: FICI of F332 with antibiotics; assay type: cell-based, S. aureus
[4] = tested on: MRSA strain 231; assay: FICI of F332 with antibiotics; assay type: cell-based, S. aureus
[5] = tested on: MRSA strain 417; assay: FICI of F332 with antibiotics; assay type: cell-based, S. aureus
[6] = tested on: MRSA strain 1344; assay: FICI of F332 with antibiotics; assay type: cell-based, S. aureus
[7] = tested on: MRSA strain 2901; assay: FICI of F332 with antibiotics; assay type: cell-based, S. aureus
[8] = tested on: MRSA strain 3332; assay: FICI of F332 with antibiotics; assay type: cell-based, S. aureus
[9] = tested on: MRSA strain 3411; assay: FICI of F332 with antibiotics; assay type: cell-based, S. aureus
[10] = tested on: MRSA strain 1136; assay: FICI of F332 with antibiotics; assay type: cell-based, S. aureus
[11] = tested on: MRSA strain 2516; assay: FICI of F332 with antibiotics; assay type: cell-based, S. aureus
[12] = tested on: MRSA strain #1749 (ATCC strain); assay: FICI of F332 with antibiotics; assay type: cell-based, S. aureus
[13] = tested on: MRSA strain 1402; assay: FICI of F332 with antibiotics; assay type: cell-based, S. aureus
[14] = tested on: MRSA strain 2728; assay: FICI of F332 with antibiotics; assay type: cell-based, S. aureus
[15] = tested on: MRSA strain #1717 (ATCC strain); assay: FICI of F332 with antibiotics; assay type: cell-based, S. aureus
[16] = tested on: MRSA strain 2224; assay: FICI of F332 with antibiotics; assay type: cell-based, S. aureus
[17] = tested on: MRSA strain 3580; assay: FICI of F332 with antibiotics; assay type: cell-based, S. aureus
[18] = tested on: MRSA strain 200; assay: FICI of F332 with antibiotics; assay type: cell-based, S. aureus
[19] = tested on: MRSA strain 1449; assay: FICI of F332 with antibiotics; assay type: cell-based, S. aureus

What does the source list for `CCCCCCCCCNc1ccc(F)c(C(N)=O)c1F` [Compound F332, 2,6-difluoro-3-(nonylamino)benzamide]?
localization of FtsZ-eGFP in B. subtilis 168 cells [1]: Green fluorescence appeared in multiple parts of B. subtilis cells; FICI of F332 combined with Amoxicillin [2]: 0.56; FICI of F332 combined with Cefuroxime [2]: 0.19; FICI of F332 combined with Cloxacillin [2]: 0.56; FICI of F332 combined with Meropenem [2]: 2.25; FICI of F332 combined with Meticillin [2]: 0.25; FICI of F332 combined with Amoxicillin [3]: 0.56; FICI of F332 combined with Cefuroxime [3]: 0.25; FICI of F332 combined with Cloxacillin [3]: 0.19; FICI of F332 combined with Meropenem [3]: 1.50; FICI of F332 combined with Meticillin [3]: 0.25; FICI of F332 combined with Amoxicillin [4]: 0.52; FICI of F332 combined with Cefuroxime [4]: 0.50; FICI of F332 combined with Cloxacillin [4]: 0.28; FICI of F332 combined with Meropenem [4]: 0.63; FICI of F332 combined with Meticillin [4]: 0.50; FICI of F332 combined with Amoxicillin [5]: 0.27; FICI of F332 combined with Cefuroxime [5]: 0.06; FICI of F332 combined with Cloxacillin [5]: 0.09; FICI of F332 combined with Meropenem [5]: 0.19; FICI of F332 combined with Meticillin [5]: 0.06; FICI of F332 combined with Amoxicillin [6]: 1.13; FICI of F332 combined with Cefuroxime [6]: 0.27; FICI of F332 combined with Cloxacillin [6]: 0.13; FICI of F332 combined with Meropenem [6]: 2.00; FICI of F332 combined with Meticillin [6]: 0.27; FICI of F332 combined with Amoxicillin [7]: 0.06; FICI of F332 combined with Cefuroxime [7]: 0.13; FICI of F332 combined with Cloxacillin [7]: 0.25; FICI of F332 combined with Meropenem [7]: 4.01; FICI of F332 combined with Meticillin [7]: 0.01; FICI of F332 combined with Amoxicillin [8]: 0.63; FICI of F332 combined with Cefuroxime [8]: 0.13; FICI of F332 combined with Cloxacillin [8]: 0.38; FICI of F332 combined with Meropenem [8]: 2.25; FICI of F332 combined with Meticillin [8]: 0.28; FICI of F332 combined with Amoxicillin [9]: 2.02; FICI of F332 combined with Cefuroxime [9]: 1.00; FICI of F332 combined with Cloxacillin [9]: 0.53; FICI of F332 combined with Meropenem [9]: 3.00; FICI of F332 combined with Meticillin [9]: 1.02; FICI of F332 combined with Amoxicillin [10]: 1.03; FICI of F332 combined with Cefuroxime [10]: 0.13; FICI of F332 combined with Cloxacillin [10]: 0.38; FICI of F332 combined with Meropenem [10]: 4.50; FICI of F332 combined with Meticillin [10]: 0.31; FICI of F332 combined with Amoxicillin [11]: 0.38; FICI of F332 combined with Cefuroxime [11]: 0.07; FICI of F332 combined with Cloxacillin [11]: 0.19; FICI of F332 combined with Meropenem [11]: 0.38; FICI of F332 combined with Meticillin [11]: 0.19; FICI of F332 combined with Amoxicillin [12]: 1.03; FICI of F332 combined with Cefuroxime [12]: 1.13; FICI of F332 combined with Cloxacillin [12]: 1.25; FICI of F332 combined with Meropenem [12]: 10.0; FICI of F332 combined with Meticillin [12]: 1.06; FICI of F332 combined with Amoxicillin [13]: 1.02; FICI of F332 combined with Cefuroxime [13]: 0.63; FICI of F332 combined with Cloxacillin [13]: 0.75; FICI of F332 combined with Meropenem [13]: 5.00; FICI of F332 combined with Meticillin [13]: 0.56; FICI of F332 combined with Amoxicillin [14]: 0.08; FICI of F332 combined with Cefuroxime [14]: 0.14; FICI of F332 combined with Cloxacillin [14]: 1.01; FICI of F332 combined with Meropenem [14]: 2.03; FICI of F332 combined with Meticillin [14]: 0.16; FICI of F332 combined with Amoxicillin [15]: 1.06; FICI of F332 combined with Cefuroxime [15]: 1.13; FICI of F332 combined with Cloxacillin [15]: 2.50; FICI of F332 combined with Meropenem [15]: 3.00; FICI of F332 combined with Meticillin [15]: 1.13; FICI of F332 combined with Amoxicillin [16]: 0.19; FICI of F332 combined with Cefuroxime [16]: 0.25; FICI of F332 combined with Cloxacillin [16]: 0.25; FICI of F332 combined with Meropenem [16]: 4.01; FICI of F332 combined with Meticillin [16]: 0.13; FICI of F332 combined with Amoxicillin [17]: 0.28; FICI of F332 combined with Cefuroxime [17]: 0.06; FICI of F332 combined with Cloxacillin [17]: 0.53; FICI of F332 combined with Meropenem [17]: 1.25; FICI of F332 combined with Meticillin [17]: 0.19; FICI of F332 combined with Amoxicillin [18]: 0.02; FICI of F332 combined with Cefuroxime [18]: 1.00; FICI of F332 combined with Cloxacillin [18]: 1.00; FICI of F332 combined with Meropenem [18]: 8.01; FICI of F332 combined with Meticillin [18]: 0.25; FICI of F332 combined with Amoxicillin [19]: 0.38; FICI of F332 combined with Cefuroxime [19]: 1.50; FICI of F332 combined with Cloxacillin [19]: 0.63; FICI of F332 combined with Meropenem [19]: 33.0; FICI of F332 combined with Meticillin [19]: 0.75

— patent US20170348258A1, “3-Amino Benzamide Derivative Serving As B-Lactam Auxiliary Antibiotic, Preparation Method and Use Thereof” (THE HONG KONG POLYTECHNIC UNIVERSITY, priority 2014, published 2017)
